Assay results: patent US20170368082A1, “FORMULATIONS OF BRINCIDOFOVIR” (priority 2016, published 2017)
Several values for one entry are separate records, joined by “and”; a condition that tells them apart may be missing. Equal entries are not always repeated.

Assay: Tissue distribution by quantitative whole-body autoradiography (QWBA)
Type: in vivo, male Sprague Dawley and Long-Evans rats
Conditions: for Concentration of radioactivity: SD rat
Method: The study utilized 4 groups of male SD rats (albino), and 3 groups of male LE rats (pigmented); a total of 39 rats. All animals were obtained from Hilltop Lab Animals, Inc. (Scottdale, Pa.). […] Rats in Group 5 were administered a single 2-h IV infusion of [^14C]brincidofovir at a target dose of 2 mg/kg. […] Three dosing formulations (one for high dose IV, one for low dose IV, and one for PO dose) were prepared at QPS on the day of dosing. The IV formulation for Groups 1, 2, 3, and 4 contained a vehicle of 10 mM sodium phosphate buffer in 5% dextrose solution at pH 8.0(±0.1).
Each animal, at their respective termination time points, was euthanized for QWBA analysis immediately after blood collection. One rat per time point per Group was euthanized as listed below.
The blood samples were maintained on wet ice (approximately 4° C.) and then centrifuged to obtain plasma within 1 h of the blood collection time. Centrifuge settings were recorded in the study notebook. Duplicate aliquots of plasma (0.050 mL) were analyzed for radioactivity using direct counting by LSC, and residual plasma was stored at approximately −70° C. and was saved for possible future analysis under a separate study protocol. Residual red blood cells were discarded as radioactive waste.
The pinna, distal limbs, hair, and tail were removed from each frozen carcass and each frozen carcass was embedded in an aqueous suspension of approximately 2% (w/v) carboxymethylcellulose and frozen into a block. The blocks were stored at approximately −20° C. prior to sectioning. Each blocked carcass was mounted on the object stage of a cryomicrotome (Leica CM3600 Cryomacrocut, Nussloch, Germany and Vibratome 9800, St. Louis, Mo.) maintained at approximately −20° C. and internal standards (3), which were plasma fortified with [^14C]-glucose at one concentration (approximately 0.05 μCi/mL), were placed into the frozen blocks, prior to sectioning, and were used for section thickness quality control. A number of whole-body sections (approximately 40 μm thick) were taken in the sagittal plane at various levels of interest using a whole-body cryomicrotome set at −20° C. Sagittal sections (20-50 μm thick) of frozen carcasses were exposed to phosphor imaging plates. Regions of images in tissues were converted to concentrations using standards. All of the major tissues, organs, and biological fluids were represented.
Tissue concentration data was determined for the following tissues and/or contents: adipose (brown and white), adrenal gland, bile (in duct), blood (cardiac), bone, bone marrow, brain (cerebrum, cerebellum, medulla), cecum (and contents), large intestine (and contents), epididymis, esophagus, eye (uvea and lens), Harderian gland, heart, kidney (cortex and medulla), liver, lung, lymph node, pancreas, pituitary gland, prostate gland, salivary gland, seminal vesicles, skeletal muscle, skin (pigmented and non-pigmented), small intestine (and contents), stomach (gastric mucosa and contents), spleen, spinal cord, testis, thymus, thyroid, and urinary bladder (and contents).
The imaging plate and sections were placed in light-tight exposure cassettes, in a copper-lined lead safe, for a 4-day exposure at room temperature. […] Quantification was performed by image densitometry using MCD image analysis software (v. 7.0, Interfocus Imaging Ltd) and a standard curve constructed from the integrated response [i.e., Molecular Dynamics Counts per square millimeter (MDC/mm^2)] and the nominal concentrations of the ^14C-calibration standards. The concentrations of radioactivity were expressed as the μg equivalents of [^14C]brincidofovir per gram sample (μg equiv/g). A lower limit of quantification (LLOQ) was applied to the data (See section 6.7.4).
Tissue concentrations that fell below the LLOQ were identified as being below the quantification limit (BQL). Tissue areas that were not visualized on autoradiographic images were identified as no sample (NS) and reported as BQL.

[1] = Group 6 SD albino rats, oral 15 mg/kg, c2 2 h, c3 24 h, c4 168 h, LLOQ 0.034

With `CCCCCCCCCCCCCCCCOCCCOP(=O)(O)CO[C@H](CO)Cn1ccc(N)nc1=O` [[^14C]brincidofovir] the “Bile Cmax, IV relative to oral” value (15 mg/kg) was 14 times, the “Small intestinal tissue concentration, IV relative to oral” value (15 mg/kg) was “approximately 1/10” and the “Small intestine Cmax, oral compared to IV” value (15 mg/kg) was 6 fold. The “Tissue t1/2: adrenal gland” value (15 mg/kg 2-h IV) was 254 h, the “Tissue t1/2: blood (cardiac)” value (15 mg/kg 2-h IV) was 14.2 h and the “Tissue t1/2: bone marrow” value (15 mg/kg 2-h IV) was 276 h. The “Tissue t1/2: lymph node” value (15 mg/kg 2-h IV) was 345 h, the “Tissue t1/2: skin non-pigmented” value (15 mg/kg 2-h IV) was 310 h and the “Tissue t1/2: spleen” value (15 mg/kg 2-h IV) was 378 h. The “Tissue t1/2: adipose (brown)” value (15 mg/kg PO) was 234 h, the “Tissue t1/2: esophagus” value (15 mg/kg PO) was 37.2 h and the “Tissue t1/2: lung” value (15 mg/kg PO) was 93 h. The “Tissue t1/2: pituitary gland” value (15 mg/kg PO) was 106 h, the “Tissue t1/2: small intestine” value (15 mg/kg PO) was 98.1 h and the “Tissue t1/2: spleen” value (15 mg/kg PO) was 115 h. The Concentration of radioactivity (Adipose (brown), 2 h, 15 mg/kg IV) was 2.088 μg equiv./g, the Concentration of radioactivity (Adipose (brown), 24 h, 15 mg/kg IV) was 0.473 μg equiv./g and the Concentration of radioactivity (Adipose (brown), 168 h, 15 mg/kg IV) was 0.391 μg equiv./g. For the same compound, the Concentration of radioactivity (Adipose (white), 2 h, 15 mg/kg IV) was 0.386 μg equiv./g, the Concentration of radioactivity (Adipose (white), 24 h, 15 mg/kg IV) was 0.135 μg equiv./g and the Concentration of radioactivity (Adipose (white), 168 h, 15 mg/kg IV) was “BQL (BQL = Value is below the LLOQ)”. It also gave a Concentration of radioactivity (Adrenal Gland, 2 h, 15 mg/kg IV) of 4.308 μg equiv./g, a Concentration of radioactivity (Adrenal Gland, 24 h, 15 mg/kg IV) of 1.680 μg equiv./g and a Concentration of radioactivity (Adrenal Gland, 168 h, 15 mg/kg IV) of 0.647 μg equiv./g. It also gave a Concentration of radioactivity (Bile (in duct), 24 h, 15 mg/kg IV) of 1.469 μg equiv./g, a Concentration of radioactivity (Bile (in duct), 168 h, 15 mg/kg IV) of 0.058 μg equiv./g and a Concentration of radioactivity (Blood (cardiac), 2 h, 15 mg/kg IV) of 6.865 μg equiv./g. For the same compound, the Concentration of radioactivity (Blood (cardiac), 24 h, 15 mg/kg IV) was 0.308 μg equiv./g, the Concentration of radioactivity (Blood (cardiac), 168 h, 15 mg/kg IV) was “BQL (BQL = Value is below the LLOQ)” and the Concentration of radioactivity (Bone Marrow, 2 h, 15 mg/kg IV) was 3.411 μg equiv./g. For the same compound, the Concentration of radioactivity (Bone Marrow, 24 h, 15 mg/kg IV) was 1.219 μg equiv./g, the Concentration of radioactivity (Bone Marrow, 168 h, 15 mg/kg IV) was 0.196 μg equiv./g and the Concentration of radioactivity (Bone, 2 h, 15 mg/kg IV) was 0.449 μg equiv./g. The Concentration of radioactivity (Bone, 24 h, 15 mg/kg IV) was 0.095 μg equiv./g, the Concentration of radioactivity (Bone, 168 h, 15 mg/kg IV) was “BQL (BQL = Value is below the LLOQ)” and the Concentration of radioactivity (Brain (cerebellum), 2 h, 15 mg/kg IV) was 0.907 μg equiv./g. The Concentration of radioactivity (Brain (cerebellum), 24 h, 15 mg/kg IV) was 0.161 μg equiv./g, the Concentration of radioactivity (Brain (cerebellum), 168 h, 15 mg/kg IV) was “BQL (BQL = Value is below the LLOQ)” and the Concentration of radioactivity (Brain (cerebrum), 2 h, 15 mg/kg IV) was 0.803 μg equiv./g. The Concentration of radioactivity (Brain (cerebrum), 24 h, 15 mg/kg IV) was 0.107 μg equiv./g, the Concentration of radioactivity (Brain (cerebrum), 168 h, 15 mg/kg IV) was “BQL (BQL = Value is below the LLOQ)” and the Concentration of radioactivity (Brain (medulla), 2 h, 15 mg/kg IV) was 0.864 μg equiv./g. For the same compound, the Concentration of radioactivity (Brain (medulla), 24 h, 15 mg/kg IV) was 0.132 μg equiv./g, the Concentration of radioactivity (Brain (medulla), 168 h, 15 mg/kg IV) was “BQL (BQL = Value is below the LLOQ)” and the Concentration of radioactivity (Cecum (contents), 2 h, 15 mg/kg IV) was 0.085 μg equiv./g. It also gave a Concentration of radioactivity (Cecum (contents), 24 h, 15 mg/kg IV) of 58.016 μg equiv./g, a Concentration of radioactivity (Cecum, 2 h, 15 mg/kg IV) of 3.658 μg equiv./g and a Concentration of radioactivity (Cecum, 24 h, 15 mg/kg IV) of 5.981 μg equiv./g. The Concentration of radioactivity (Cecum, 168 h, 15 mg/kg IV) was 0.099 μg equiv./g, the Concentration of radioactivity (Epididymis, 2 h, 15 mg/kg IV) was 2.391 μg equiv./g and the Concentration of radioactivity (Epididymis, 24 h, 15 mg/kg IV) was 0.566 μg equiv./g. For the same compound, the Concentration of radioactivity (Epididymis, 168 h, 15 mg/kg IV) was 0.234 μg equiv./g, the “Concentration, Seminal Vesicles” value (G4 15 mg/kg IV, c3 2 h, c6 8 h, c9 24 h, c12 72 h) was 1.374 μg equiv/g tissue and 1.834 μg equiv/g tissue and 1.717 μg equiv/g tissue and 1.127 μg equiv/g tissue and the “Concentration, Eye (lens)” value (G5 2 mg/kg IV, c2 2 h, c5 8 h, c8 24 h, c11 72 h, LLOQ 0.005) was “BQL”. For the same compound, the Urinary bladder contents (Group 3, 2 h) was 47.0 μg equiv/g, the “Concentration at Tmax: kidney cortex” value (Group 3 SD, 15 mg/kg 2-h IV) was 106.5 μg equiv/g and the “Concentration at Tmax: kidney medulla” value (Group 3 SD, 15 mg/kg 2-h IV) was 33.4 μg equiv/g. For the same compound, the “Concentration at Tmax: liver” value (Group 3 SD, 15 mg/kg 2-h IV) was 229.4 μg equiv/g, the “Concentration at Tmax: small intestine” value (Group 3 SD, 15 mg/kg 2-h IV) was 43.7 μg equiv/g and the “Concentration at Tmax: urinary bladder” value (Group 3 SD, 15 mg/kg 2-h IV) was 36.0 μg equiv/g. The “Highest observed concentration in blood” value (Group 3 SD, 15 mg/kg IV, 2 h) was 6.9 μg equiv/g, the “Concentration in spleen at 840 h post-dose” value (Group 4, 15 mg/kg IV) was 0.270 μg equiv/g and the Urinary bladder contents (Group 4, 4 h) was 814.4 μg equiv/g. For the same compound, the “Concentration at Tmax: kidney cortex” value (Group 4 LE, 15 mg/kg 2-h IV) was 97.3 μg equiv/g, the “Concentration at Tmax: kidney medulla” value (Group 4 LE, 15 mg/kg 2-h IV) was 27.0 μg equiv/g and the “Concentration at Tmax: liver” value (Group 4 LE, 15 mg/kg 2-h IV) was 229.7 μg equiv/g. For the same compound, the “Concentration at Tmax: small intestine” value (Group 4 LE, 15 mg/kg 2-h IV) was 71.0 μg equiv/g, the “Concentration at Tmax: urinary bladder” value (Group 4 LE, 15 mg/kg 2-h IV) was 22.8 μg equiv/g and the “Highest observed concentration in blood” value (Group 4 LE, 15 mg/kg IV, 2 h) was 5.3 μg equiv/g. The Bile (Group 5, 2 h) was 32.7 μg equiv/g, the Urinary bladder contents (Group 5, 2 h) was 22.9 μg equiv/g and the “Concentration at Tmax: kidney cortex” value (Group 5 LE, 2 mg/kg 2-h IV) was 11.0 μg equiv/g. The “Concentration at Tmax: kidney medulla” value (Group 5 LE, 2 mg/kg 2-h IV) was 3.4 μg equiv/g, the “Concentration at Tmax: large intestine” value (Group 5 LE, 2 mg/kg 2-h IV) was 1.0 μg equiv/g and the “Concentration at Tmax: liver” value (Group 5 LE, 2 mg/kg 2-h IV) was 34.2 μg equiv/g. For the same compound, the “Concentration at Tmax: small intestine” value (Group 5 LE, 2 mg/kg 2-h IV) was 2.5 μg equiv/g, the “Highest observed concentration in blood” value (Group 5 LE, 2 mg/kg IV, 2 h) was 0.771 μg equiv/g and the Bile (Group 6, 2 h) was 9.7 μg equiv/g. The Urinary bladder contents (Group 6, 24 h) was 39.9 μg equiv/g, the “Concentration of radioactivity, Brain (cerebrum)” value [1] was “BQL” and the “Concentration of radioactivity, Brain (medulla)” value [1] was “BQL”. For the same compound, the “Concentration of radioactivity, Eye (lens)” value [1] was “BQL”, the “Concentration of radioactivity, Spinal Cord” value [1] was “BQL” and the “Concentration of radioactivity, Epididymis” value (Group 6 SD albino rats, oral 15 mg/kg, c2 2 h, c3 24 h, c4 168 h, LLOQ 0.034, 15 mg/kg) was 0.073 μg equiv./g and 0.091 μg equiv./g and 0.075 μg equiv./g. The “Concentration at Tmax: cecum” value (Group 6 SD, 15 mg/kg PO) was 7.5 μg equiv/g and the “Concentration at Tmax: kidney cortex” value (Group 6 SD, 15 mg/kg PO) was 18.4 μg equiv/g.
